Assay results published in ChEMBL document CHEMBL3616462, “Synthesis and antiviral activity of maleopimaric and quinopimaric acids' derivatives” (Bioorg Med Chem, 2015).

Tests used:
[1] = Antiviral activity against Influenza A virus (A/Brisbane/10/2007(H3N2)) infected in MDCK cells; format: functional, cell-based
[2] = Cytotoxicity against Influenza A virus (A/California/07/2009(H1N1)) infected MDCK cells; format: cell-based, Canis lupus familiaris; conditions: dog
[3] = Cytotoxicity against Influenza B virus (B/Florida/4/2006) infected MDCK cells; format: cell-based, Canis lupus familiaris; conditions: dog
[4] = Cytotoxicity against Influenza A virus (A/Brisbane/10/2007(H3N2)) infected MDCK cells; format: cell-based, Canis lupus familiaris; conditions: dog
[5] = Selectivity index, ratio of CC50 for Influenza A virus (A/California/07/2009(H1N1)) infected MDCK cells to EC50 for antiviral activity against Influenza A virus H1N1 (A/California/07/2009(H1N1)) infected in MDCK cells; format: toxicity, cell-based; conditions: dog; read-out: Ratio CC50/EC50
[6] = Antiviral activity against Influenza A virus (A/Viet Nam/1203/2004(H5N1)) infected in MDCK cells; format: functional, cell-based
[7] = Antiviral activity against Influenza A virus (A/California/07/2009(H1N1)) infected in MDCK cells; format: functional, cell-based
[8] = Cytotoxicity against Influenza A virus (A/Viet Nam/1203/2004(H5N1)) infected MDCK cells; format: cell-based, Canis lupus familiaris; conditions: dog
[9] = system: Influenza B virus; assay: Antiviral activity against Influenza B virus (B/Florida/4/2006) in MDCK cells; format: functional, cell-based; conditions: B/Florida/4/2006, MDCK
[10] = Selectivity index, ratio of CC50 for Influenza A virus (A/Brisbane/10/2007(H3N2)) infected MDCK cells to EC50 for antiviral activity against Influenza A virus (A/Brisbane/10/2007(H3N2)); format: toxicity, cell-based; conditions: dog; read-out: Ratio CC50/EC50
[11] = Selectivity index, ratio of CC50 for Influenza A virus (A/Viet Nam/1203/2004(H5N1)) infected MDCK cells to EC50 for antiviral activity against Influenza A virus (A/Viet Nam/1203/2004(H5N1)) infected in MDCK cells; format: toxicity, cell-based; conditions: dog; read-out: Ratio CC50/EC50

SMILES | EC50 [1] [µM] | CC50 [2] [µM] | CC50 [3] [µM] | CC50 [4] [µM] | selectivity ratio [5] | EC50 [6] [µM] | EC50 [7] [µM] | CC50 [8] [µM] | EC50 [9] [µM] | selectivity ratio [10] | selectivity ratio [11]
COC(=O)[C@]1(C)CCC[C@]2(C)[C@H]3C[C@H]4C(C(C)C)=C[C@]3(CC[C@H]21)[C@@H]1/C(=N/O)CC[C@H](O)[C@@H]14 | > 1.6 | 3.5 | 1.2 | 1.6 | 1.1 | > 1.2 | 3.2 | 1.2 | > 1.2 | – | –
COC(=O)[C@]1(C)CCC[C@]2(C)[C@H]3C[C@H]4C(C(C)C)=C[C@]3(CC[C@H]21)[C@@H]1C(=O)CCC2(OCCO2)[C@@H]14 | > 26 | 34 | 27 | 26 | 1.3 | > 24 | 27 | 24 | > 27 | – | –
COC(=O)[C@]1(C)CCC[C@]2(C)[C@H]3C[C@@H]4[C@H]5[C@@H]6CCC(=O)[C@H]5[C@@]3(CC[C@H]21)CC4(C(C)C)O6 | > 100 | > 100 | > 100 | > 100 | – | > 100 | > 100 | > 100 | > 100 | – | –
COC(=O)[C@H]1[C@@H](C(=O)OC)[C@@]23C=C(C(C)C)[C@@H]1C[C@@H]2[C@@]1(C)CCC[C@@](C)(C(=O)OC)[C@@H]1CC3 | > 7.6 | 9.4 | – | 7.6 | 2.5 | – | 3.8 | – | – | – | –
CC(C)C1=C[C@@]23CC[C@@H]4[C@](C)(CCC[C@@]4(C)C(=O)O)[C@H]2C[C@@H]1[C@H]1C(=O)C=CC(=O)[C@H]13 | > 27 | 33 | 20 | 27 | 1 | > 30 | 32 | 30 | > 20 | – | –
COC(=O)[C@]1(C)CCC[C@]2(C)[C@H]3C[C@H]4C(C(C)C)=C[C@]3(CC[C@H]21)[C@@H]1C(=O)C=CC(=O)[C@@H]14 | 3.2 | 5.5 | 2.9 | 3.9 | – | > 2.9 | > 5.5 | 2.9 | > 2.9 | 1.2 | –
COC(=O)[C@]12C=CC(=O)[C@H]1[C@@]13C=C(C(C)C)[C@@H]2C[C@@H]1[C@@]1(C)CCC[C@@](C)(C(=O)OC)[C@@H]1CC3 | 3.2 | 3.8 | 25 | 3.9 | 1.2 | > 13 | 3.1 | 13 | > 25 | 1.2 | –
COC(=O)[C@]12CCC(=O)[C@H]1[C@@]13C=C(C(C)C)[C@@H]2C[C@@H]1[C@@]1(C)CCC[C@@](C)(C(=O)OC)[C@@H]1CC3 | 32 | 34 | 31 | 33 | 1.1 | 32 | 31 | 32 | > 31 | 1 | 1
COC(=O)[C@]12CC[C@H](O)[C@H]1[C@@]13C=C(C(C)C)[C@@H]2C[C@@H]1[C@@]1(C)CCC[C@@](C)(C(=O)OC)[C@@H]1CC3 | > 24 | 35 | 3.1 | 24 | 1.1 | 3.2 | 32 | 3.2 | > 3.1 | – | 1
COC(=O)[C@]1(C)CCC[C@]2(C)[C@H]3C[C@H]4C(C(C)C)=C[C@]3(CC[C@H]21)[C@@H]1C(=O)OC(=O)[C@@H]14 | 32 | 35 | 8.7 | 33 | 1.1 | 21 | 31 | 32 | > 8.7 | 1 | 1.5
COC(=O)[C@]1(C)CCC[C@]2(C)[C@H]3C[C@H]4C(C(C)C)=C[C@]3(CC[C@H]21)[C@@H]1C(=O)CC[C@H](O)[C@@H]14 | > 100 | > 100 | > 100 | > 100 | – | > 100 | > 100 | > 100 | > 100 | – | –
COC(=O)[C@]1(C)CCC[C@]2(C)[C@H]3C[C@H]4C(C(C)C)=C[C@]3(CC[C@H]21)[C@H]1[C@@H]4[C@@H](O)CC[C@@H]1O | > 64 | 93 | > 100 | 64 | 1.9 | > 100 | 48 | > 100 | > 100 | – | –
CC(C)C1=C[C@@]23CC[C@H]4[C@](C)(CO)CCC[C@]4(C)[C@H]2C[C@@H]1[C@@H]1[C@H]3[C@@H](O)CC[C@@H]1O | 32 | 11 | 31 | 33 | – | > 29 | > 11 | 29 | > 31 | 1 | –
COC(=O)[C@]1(C)CCC[C@]2(C)[C@H]3C[C@H]4C(C(C)C)=C[C@]3(CC[C@H]21)[C@@H]1C(=O)CC[C@H](OC(C)=O)[C@@H]14 | > 100 | > 100 | > 100 | > 100 | – | > 100 | > 100 | > 100 | > 100 | – | –
COC(=O)[C@]1(C)CCC[C@]2(C)[C@H]3C[C@H]4C(C(C)C)=C[C@]3(CC[C@H]21)[C@@H]1C(=O)CC[C@H](OCCC#N)[C@@H]14 | 34 | > 100 | 52 | 68 | – | > 31 | > 100 | 31 | > 52 | 2 | –
COC(=O)[C@]1(C)CCC[C@]2(C)[C@H]3C[C@H]4C(C(C)C)=C[C@]3(CC[C@H]21)[C@@H]1C(=O)CC[C@H](OC(=O)CCC(=O)O)[C@@H]14 | > 100 | > 100 | > 100 | > 100 | – | 88 | > 100 | > 100 | > 100 | – | > 1.1
COC(=O)[C@]1(C)CCC[C@]2(C)[C@H]3C[C@H]4C(C(C)C)=C[C@]3(CC[C@H]21)[C@H]1[C@@H]4[C@@H](OC(=O)c2cccnc2)CC[C@@H]1OC(=O)c1cccnc1 | > 4.9 | 32 | 11 | 4.9 | 1.1 | > 8.5 | 29 | 8.5 | > 11 | – | –
COC(=O)[C@]1(C)CCC[C@]2(C)[C@H]3C[C@H]4C(C(C)C)=C[C@]3(CC[C@H]21)[C@H]1[C@@H]4[C@@H](OC(=O)/C=C/c2ccccc2)CC[C@@H]1OC(=O)C=Cc1ccccc1 | > 4 | 17 | 9.3 | 4 | – | > 8.2 | > 17 | 8.2 | > 9.3 | – | –
CC(C)C1=C[C@@]23CC[C@H]4[C@](C)(COC(=O)/C=C/c5ccccc5)CCC[C@]4(C)[C@H]2C[C@@H]1[C@@H]1[C@H]3[C@@H](OC(=O)/C=C/c2ccccc2)CC[C@@H]1OC(=O)/C=C/c1ccccc1 | 31 | 35 | 46 | 33 | 1.1 | > 100 | 31 | > 100 | > 46 | 1.1 | –
COC(=O)[C@]1(C)CCC[C@]2(C)[C@H]3C[C@H]4C(C(C)C)=C[C@]3(CC[C@H]21)[C@@H]1/C(=N/O)CCC(=O)[C@@H]14 | > 13 | 31 | 2.4 | 13 | 1 | > 1.7 | 31 | 1.7 | > 2.4 | – | –
COC(=O)[C@]1(C)CCC[C@]2(C)[C@H]3C[C@@H]4[C@@H]5[C@H]6[C@H](OC(C)=O)CC[C@@H]5OC4(C(C)C)C[C@]63CC[C@H]21 | > 5 | 3.5 | 10 | 5 | 1.1 | > 12 | 3.2 | 12 | > 10 | – | –
COC(=O)[C@]1(C)CCC[C@]2(C)[C@H]3C[C@H]4C(C(C)C)=C[C@]3(CC[C@H]21)[C@@H]1/C(=N/OC(C)=O)CC[C@H](OC(C)=O)[C@@H]14 | 3.1 | 4.8 | 2.8 | 3.3 | – | > 2.5 | > 4.8 | 2.5 | > 2.8 | 1.1 | –
